The source of these data is patent US20160108049A1 (TAKEDA Gmbh, priority 2011, published 2016).

The target in one assay is T1, PDE4B1 (Homo sapiens, UniProt Q07343).
T1 construct: made in house; host or cells: SF21 insect cells (baculovirus; virus made in SF9 cells, pCR-Bac vector)
Nature of the assay: Inhibition of PDE4 activity (PDE4B1, SPA assay). The format is biochemical. The conditions noted are these: recombinant PDE4B1, 0.5 μM cAMP; read-out: PDE4B1 Inhibitory values measured as -logIC50 (converted). The method in brief:
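Read-out is SPA yttrium silicate bead scintillation after IBMX-containing beads stop the reaction. Insect-cell (SF21) lysate enzyme hydrolysed 0.5 μM [3H]cAMP at pH 7.4 with 5 mM Mg2+ for 15 min after a 5 min 37 °C preincubation; IC50 fitted by non-linear regression.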

The target of another assay is T2, human PDE5 (Homo sapiens, UniProt O76074).
T2 construct: from tissue; host or cells: human platelets from fresh donor blood (platelet lysate)
Kind of assay: Inhibition of PDE5 activity (platelet lysate, SPA assay). The format is biochemical. The conditions noted are these: 0.5 μM cGMP, read-out: PDE5 Inhibitory values measured as -logIC50 (converted). The gist of the method:
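SPA readout of [3H]cGMP hydrolysis (0.5 μM, 15 min, 37 °C after 5 min preincubation), stopped with yttrium silicate beads containing IBMX. Enzyme was lysate from human platelets, used at 10–20% substrate turnover, with PDE3 (motapizone 1 μM) and PDE2 (10 nM) blockers present. IC50 values fitted non-linearly from concentration-effect curves.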

T1 sequence (Q07343 whole entry): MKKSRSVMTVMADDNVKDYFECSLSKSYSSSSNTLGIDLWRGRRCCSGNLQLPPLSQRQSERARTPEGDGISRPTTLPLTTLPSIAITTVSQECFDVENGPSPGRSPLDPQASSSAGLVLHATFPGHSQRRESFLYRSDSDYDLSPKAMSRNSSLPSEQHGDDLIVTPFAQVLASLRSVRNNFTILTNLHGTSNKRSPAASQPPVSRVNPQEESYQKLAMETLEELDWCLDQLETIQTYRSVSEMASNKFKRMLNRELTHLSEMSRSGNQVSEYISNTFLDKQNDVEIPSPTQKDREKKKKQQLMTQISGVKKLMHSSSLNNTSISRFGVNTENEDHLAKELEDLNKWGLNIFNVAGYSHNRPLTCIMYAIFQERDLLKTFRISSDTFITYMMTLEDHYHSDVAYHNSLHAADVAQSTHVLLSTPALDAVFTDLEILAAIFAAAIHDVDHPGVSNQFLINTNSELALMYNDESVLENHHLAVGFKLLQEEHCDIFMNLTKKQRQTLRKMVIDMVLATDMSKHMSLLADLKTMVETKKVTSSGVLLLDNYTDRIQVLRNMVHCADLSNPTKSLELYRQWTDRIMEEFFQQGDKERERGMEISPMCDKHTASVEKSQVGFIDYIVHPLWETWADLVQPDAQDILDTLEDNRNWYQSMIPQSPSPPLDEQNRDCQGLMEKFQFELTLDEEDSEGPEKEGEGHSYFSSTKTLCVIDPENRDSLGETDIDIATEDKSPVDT

Regarding `COc1ccc(C2=NN(C3CCN(C(=O)C[C@@H](Cc4ccccc4)NC(=O)c4c[nH]c5c(-c6c(OCC7CC7)ccc7c6OCO7)ncnc45)CC3)C(=O)C(C)(C)C2)cc1OC` [Example 78, 4-[5-(cyclopropylmethoxy)-1,3-benzodioxol-4-yl]-N-[(2R)-4-{4-[3-(3,4-dimethoxyphenyl)-5,5-dimethyl-6-oxo-5,6-dihydropyridazin-1(4H)-yl]piperidin-1-yl}-4-oxo-1-phenylbutan-2-yl]-5H-pyrrolo[3,2-d]pyrimidine-7-carboxamide], the IC50 at PDE4B1 and at human PDE5 was 1 to 10 nM in each case.
With `COc1ccc(C2=NN(C3CCN(C(=O)[C@H](CCC(=O)N4CCCCC4)NC(=O)c4c[nH]c5c(-c6c(OCC7CC7)ccc7c6OCO7)ncnc45)CC3)C(=O)[C@@H]3CCCC[C@H]23)cc1OC` [Example 79, 4-[5-(cyclopropylmethoxy)-1,3-benzodioxol-4-yl]-N-[(2S)-1-{4-[(4aS,8aR)-4-(3,4-dimethoxyphenyl)-1-oxo-4a,5,6,7,8,8a-hexahydrophthalazin-2(1H)-yl]piperidin-1-yl}-1,5-dioxo-5-(piperidin-1-yl)pentan-2-yl]-5H-pyrrolo[3,2-d]pyrimidine-7-carboxamide], the IC50 at PDE4B1 and on human PDE5 was 1 to 10 nM throughout.
With `COc1ccc(C2=NN(C3CCN(C(=O)[C@H](CCC(=O)N4CCCCC4)NC(=O)c4c(C)[nH]c5c(-c6c(OCC7CC7)ccc7c6OCO7)ncnc45)CC3)C(=O)[C@@H]3CCCC[C@H]23)cc1OC` [Example 83, 4-[5-(cyclopropylmethoxy)-1,3-benzodioxol-4-yl]-N-[(2S)-1-{4-[(4aS,8aR)-4-(3,4-dimethoxyphenyl)-1-oxo-4a,5,6,7,8,8a-hexahydrophthalazin-2(1H)-yl]piperidin-1-yl}-1,5-dioxo-5-(piperidin-1-yl)pentan-2-yl]-6-methyl-5H-pyrrolo[3,2-d]pyrimidine-7-carboxamide], the IC50 at PDE4B1 is 1 to 10 nM; on human PDE5, less than 1 nM.
For `COc1cc(OCC2CC2)c(-c2ncnc3c(C(=O)N[C@@H](CCC(=O)N4CCCCC4)C(=O)N4CCC(N5N=C(c6ccc(OC)c(OC)c6)[C@H]6CCCC[C@H]6C5=O)CC4)c(C)[nH]c23)cc1F` [Example 84, 4-[2-(cyclopropylmethoxy)-5-fluoro-4-methoxyphenyl]-N-[(2S)-1-{4-[(4aS,8aR)-4-(3,4-dimethoxyphenyl)-1-oxo-4a,5,6,7,8,8a-hexahydrophthalazin-2(1H)-yl]piperidin-1-yl}-1,5-dioxo-5-(piperidin-1-yl)pentan-2-yl]-6-methyl-5H-pyrrolo[3,2-d]pyrimidine-7-carboxamide], in that order: 1 to 10 nM and less than 1 nM.
Taken in the same sequence, the figures for `COc1ccc(C2=NN(C3CCN(C(=O)[C@@H](Cc4cscn4)NC(=O)c4c[nH]c5c(-c6c(OCC7CC7)ccc7c6OCO7)ncnc45)CC3)C(=O)[C@@H]3CCCC[C@H]23)cc1OC` [Example 85, 4-[5-(cyclopropylmethoxy)-1,3-benzodioxol-4-yl]-N-[(2R)-1-{4-[(4aS,8aR)-4-(3,4-dimethoxyphenyl)-1-oxo-4a,5,6,7,8,8a-hexahydrophthalazin-2(1H)-yl]piperidin-1-yl}-1-oxo-3-(1,3-thiazol-4-yl)propan-2-yl]-5H-pyrrolo[3,2-d]pyrimidine-7-carboxamide] were less than 1 nM and less than 1 nM.
Take `COc1ccc(C2=NN(C3CCN(C(=O)[C@H](Cn4cccn4)NC(=O)c4c[nH]c5c(-c6c(OCC7CC7)ccc7c6OCO7)ncnc45)CC3)C(=O)[C@@H]3CCCC[C@H]23)cc1OC` [Example 88, 4-[5-(cyclopropylmethoxy)-1,3-benzodioxol-4-yl]-N-[(2S)-1-{4-[(4aS,8aR)-4-(3,4-dimethoxyphenyl)-1-oxo-4a,5,6,7,8,8a-hexahydrophthalazin-2(1H)-yl]piperidin-1-yl}-1-oxo-3-(1H-pyrazol-1-yl)propan-2-yl]-5H-pyrrolo[3,2-d]pyrimidine-7-carboxamide]: the IC50 at PDE4B1 and on human PDE5 was 1 to 10 nM throughout.
In the case of `COc1ccc(C2=NN(C3CCN(C(=O)[C@@H](Cc4c[nH]cn4)NC(=O)c4c[nH]c5c(-c6c(OCC7CC7)ccc7c6OCO7)ncnc45)CC3)C(=O)[C@@H]3CCCC[C@H]23)cc1OC` [Example 89, 4-[5-(cyclopropylmethoxy)-1,3-benzodioxol-4-yl]-N-[(2R)-1-{4-[(4aS,8aR)-4-(3,4-dimethoxyphenyl)-1-oxo-4a,5,6,7,8,8a-hexahydrophthalazin-2(1H)-yl]piperidin-1-yl}-3-(1H-imidazol-4-yl)-1-oxopropan-2-yl]-5H-pyrrolo[3,2-d]pyrimidine-7-carboxamide], the IC50 on PDE4B1 and at human PDE5 was less than 1 nM each time.
With `COc1ccc(C2=NN(C3CCN(C(=O)[C@H](Cc4c[nH]cn4)NC(=O)c4c[nH]c5c(-c6c(OCC7CC7)ccc7c6OCO7)ncnc45)CC3)C(=O)[C@@H]3CCCC[C@H]23)cc1OC` [Example 90, 4-[5-(cyclopropylmethoxy)-1,3-benzodioxol-4-yl]-N-[(2S)-1-{4-[(4aS,8aR)-4-(3,4-dimethoxyphenyl)-1-oxo-4a,5,6,7,8,8a-hexahydrophthalazin-2(1H)-yl]piperidin-1-yl}-3-(1H-imidazol-4-yl)-1-oxopropan-2-yl]-5H-pyrrolo[3,2-d]pyrimidine-7-carboxamide], the IC50 at PDE4B1 and on human PDE5 was less than 1 nM each time.
As for `COc1ccc(C2=NN(C3CCN(C(=O)[C@@H](Cc4c[nH]c5ccccc45)NC(=O)c4c[nH]c5c(-c6c(OCC7CC7)ccc7c6OCO7)ncnc45)CC3)C(=O)[C@@H]3CCCC[C@H]23)cc1OC` [Example 91, 4-[5-(cyclopropylmethoxy)-1,3-benzodioxol-4-yl]-N-[(2R)-1-{4-[(4aS,8aR)-4-(3,4-dimethoxyphenyl)-1-oxo-4a,5,6,7,8,8a-hexahydrophthalazin-2(1H)-yl]piperidin-1-yl}-3-(1H-indol-3-yl)-1-oxopropan-2-yl]-5H-pyrrolo[3,2-d]pyrimidine-7-carboxamide], the IC50 on PDE4B1 and on human PDE5 was less than 1 nM throughout.
Consider `COc1ccc(C2=NN(C3CCN(C(=O)C(Cc4c[nH]c5ccccc45)NC(=O)c4c[nH]c5c(-c6c(OCC7CC7)ccc7c6OCO7)ncnc45)CC3)C(=O)C3CCCCC23)cc1OC` [Example 92, 4-[5-(cyclopropylmethoxy)-1,3-benzodioxol-4-yl]-N-[(2S)-1-{4-[(4aS,8aR)-4-(3,4-dimethoxyphenyl)-1-oxo-4^a,5,6,7,8,8^a-hexahydrophthalazin-2(1H)-yl]piperidin-1-yl}-3-(1H-indol-3-yl)-1-oxopropan-2-yl]-5H-pyrrolo[3,2-d]pyrimidine-7-carboxamide], for which the IC50 at PDE4B1 and on human PDE5 was less than 1 nM each time.
As to `COc1ccc(C2=NN(C3CCN(C(=O)[C@@H](Cc4cn(C)c5ccccc45)NC(=O)c4c[nH]c5c(-c6c(OCC7CC7)ccc7c6OCO7)ncnc45)CC3)C(=O)[C@@H]3CCCC[C@H]23)cc1OC` [Example 93, 4-[5-(cyclopropylmethoxy)-1,3-benzodioxol-4-yl]-N-[(2R)-1-{4-[(4aS,8aR)-4-(3,4-dimethoxyphenyl)-1-oxo-4a,5,6,7,8,8a-hexahydrophthalazin-2(1H)-yl]piperidin-1-yl}-3-(1-methyl-1H-indol-3-yl)-1-oxopropan-2-yl]-5H-pyrrolo[3,2-d]pyrimidine-7-carboxamide], the IC50 is less than 1 nM on PDE4B1 and 1 to 10 nM on human PDE5.
On to `COc1ccc(C2=NN(C3CCN(C(=O)[C@H](CC4CCCCC4)NC(=O)c4c[nH]c5c(-c6c(OCC7CC7)ccc7c6OCO7)ncnc45)CC3)C(=O)C(C)(C)C2)cc1OC` [Example 94, N-[(2S)-3-cyclohexyl-1-{4-[3-(3,4-dimethoxyphenyl)-5,5-dimethyl-6-oxo-5,6-dihydropyridazin-1(4H)-yl]piperidin-1-yl}-1-oxopropan-2-yl]-4-[5-(cyclopropylmethoxy)-1,3-benzodioxol-4-yl]-5H-pyrrolo[3,2-d]pyrimidine-7-carboxamide], for which the IC50 at PDE4B1 was 1 to 10 nM; at human PDE5, less than 1 nM.
Taken in the same sequence, the figures for `COc1ccc(C2=NN(C3CCN(C(=O)[C@@H](CC(C)C)NC(=O)c4c[nH]c5c(-c6c(OCC7CC7)ccc7c6OCO7)ncnc45)CC3)C(=O)[C@@H]3CCCC[C@H]23)cc1OC` [Example 95, 4-[5-(cyclopropylmethoxy)-1,3-benzodioxol-4-yl]-N-[(2R)-1-{4-[(4aS,8aR)-4-(3,4-dimethoxyphenyl)-1-oxo-4a,5,6,7,8,8a-hexahydrophthalazin-2(1H)-yl]piperidin-1-yl}-4-methyl-1-oxopentan-2-yl]-5H-pyrrolo[3,2-d]pyrimidine-7-carboxamide] were less than 1 nM and less than 1 nM.
Taken in the same sequence, the figures for `COc1ccc(C2=NN(C3CCN(C(=O)[C@@H](CN(C)C)NC(=O)c4c[nH]c5c(-c6c(OCC7CC7)ccc7c6OCO7)ncnc45)CC3)C(=O)[C@@H]3CCCC[C@H]23)cc1OC` [Example 96, 4-[5-(cyclopropylmethoxy)-1,3-benzodioxol-4-yl]-N-[(2R)-1-{4-[(4aS,8aR)-4-(3,4-dimethoxyphenyl)-1-oxo-4a,5,6,7,8,8a-hexahydrophthalazin-2(1H)-yl]piperidin-1-yl}-3-(dimethylamino)-1-oxopropan-2-yl]-5H-pyrrolo[3,2-d]pyrimidine-7-carboxamide] were 1 to 10 nM and 1 to 10 nM.
